Measurements: ChEMBL document CHEMBL1125960, “Synthesis and biological activity of fluorinated intermediates of the methionine salvage pathway” (Bioorg Med Chem Lett, 1991)

Experiments:
[1] = test system: Plasmodium falciparum; test: Growth inhibition of Plasmodium falciparum FCB125; type: functional, organism-based
[2] = test system: Plasmodium falciparum; test: Growth inhibition of pyrimethamine-resistant Plasmodium falciparum; type: functional, organism-based
[3] = test system: Plasmodium falciparum; test: Growth inhibition of chloroquine-resistant Plasmodium falciparum; type: functional, organism-based
[4] = test system: AIK-T4; test: (§1) The compound was evaluated for toxicity against HIV infected T4 lymphocytes; type: functional; conditions: Homo sapiens
[5] = test system: AIK-T4; test: as §1; type: functional, cell-based; conditions: Homo sapiens
[6] = test system: NCI-H522; test: The compound was evaluated for its ability to inhibit growth of non small cell lung cancer ([…] cell line); type: functional; conditions: Homo sapiens

| SMILES | IC50 [1] [µM] | also measured |
| --- | --- | --- |
| OC1OC(CSC(F)(F)F)C(O)C1O (centres undefined) | > 100 | IC50 [2]: 50 µM; IC50 [3]: > 100 µM |
| NC1=NCN=C2C1N=CN2C1O[C@H](CSC(F)(F)F)[C@@H](O)[C@H]1O (some centres undefined) | 0.018 | GI50 [4]: 0.117 µM |
| NC1=NCN=C2C1N=CN2C1O[C@H](CSCCF)[C@@H](O)[C@H]1O (some centres undefined) | 0.043 |  |
| NC1=NCN=C2C1N=CN2C1O[C@H](CSC(F)F)[C@@H](O)[C@H]1O (some centres undefined) | 35 | IC50 [5]: 222 µM; GI50 [6]: 86 µM |
| NC1=NCN=C2C1N=CN2C1O[C@H](CSCC(F)(F)F)[C@@H](O)[C@H]1O (some centres undefined) | 0.085 | IC50 [5]: 0.245 µM; GI50 [6]: 45 µM |
| NC1=NCN=C2C1N=CN2C1O[C@H](CSCC(F)F)[C@@H](O)[C@H]1O (some centres undefined) | 0.025 |  |
| OC1O[C@H](CSC(F)F)[C@@H](O)[C@H]1O (some centres undefined) | > 100 |  |
